1 compound from patent US20260258051A1, “Camptothecin Compound, Preparation Method Therefor and Use Thereof” (SICHUAN KELUN-BIOTECH BIOPHARMACEUTICAL CO., LTD., priority 2022, published 2026) can be followed below.

The nature of data set [1]: Liver microsome stability test (human). To be noted: human, microsomes, 0.25 h, 1 μM. It counts as in vitro ADME. On the procedure:
(§1) Liver microsomes were used as an in vitro model to evaluate the metabolic stability of compounds in human and monkey liver microsomes.
Mixed human liver microsomes: Xenotech, USA
(§2) The positive compound testosterone or the tested substance (liver microsome solution, 50 μL) was mixed with PBS (25 μL). After pre-incubation (37° C.) for 5 min, NADPH (25 μL) was added to make the final concentration of the positive compound or the tested substance 1 μM, the final concentration of human liver microsomal protein was 0.5 mg/ml, the final concentration of monkey liver microsomal protein was 1 mg/ml, the tested substance group and the positive compound group were incubated for 0 min, 15 min. After being reacted for corresponding time, 300 μL of ice-cold acetonitrile containing internal standard was added to terminate the reaction, vortexed, and stored at −80° C. for later analysis. All incubated samples were double samples.
(§3) The tested compound was vortexed for 1 min, and centrifuged for 10 min (4° C., 4000 rpm), and 300 μL of the supernatant was taken for LC-MS/MS analysis.
(§4) Excel software was used to calculate the remaining rate (%) of the drug in primary form in the incubation system: […]
Background: Liver microsomes are vesicles of endoplasmic reticulum, rich in cytochrome P450 enzymes.

Data set [2] in a line: Liver microsome stability test (monkey). It counts as in vitro ADME, cynomolgus. As to conditions: male, monkey, microsomes, 0.25 h, 1 μM. The method, then:
as §1
Mixed male cynomolgus liver microsomes: RILD, China
as §2, §3, §4

For the next data set, the system named is MDCK cells. The data set is described as follows: Permeability test in MDCK cell model. It counts as in vitro ADME. The method, then:
(§5) The MDCK cell model was used to evaluate the permeability of the compounds, the LC-MS/MS method was used to determine the concentration of the substance to be tested, and the apparent permeability coefficient (Papp) and efflux ratio were calculated [Efflux ratio=Papp(B→A)/Papp(A→B)].
(§6) Complete culture medium: 10% fetal bovine serum and 1% penicillin/streptomycin were added to MEM culture medium.
(§7) Digestive solution: 0.05% trypsin-EDTA.
(§8) HBSS buffer: HBSS containing Ca^2+, Mg^2+.
(§9) Permeating solution: HBSS containing 10 mM Hepes, 4% BSA, pH 7.4.
(§10) Compound stock solution: a certain amount of the compound to be tested was weighed and formulated with DMSO to prepare a 10 mM stock solution.
(§11) MDCK cells (26th generation) in the logarithmic growth phase were digested and dispersed evenly with 0.05% trypsin-EDTA, and then inoculated into the Transwell chamber at 3*10^5 cells/cm^2, with 200 μL on the A side and 1000 μL on the B side. After inoculation, the medium was changed once every day and the culturing was carried out for 3 to 4 days.
(§12) The cell culture medium was discarded by pipetting, then washing was carried out three times with the permeating solution. 200 μL of permeating solution was added to A side and 1000 μL of permeating solution was added to B side. A voltage resistance meter was used to measure the cell transmembrane resistance (TEER). After the TEER value of the cells was measured, the permeating solution on both sides was discarded by pipetting, and the solution was added. After 120 minutes, 150 μL of samples were taken from A side and B side, respectively, and frozen at −80° C. before testing. Then, 10 μg/ml Fluorescent Yellow was added to A side. After incubation for 30 minutes, 100 μL of solution at B side was pipetted and added into a 96-well white plate. The fluorescence value was measured at the wavelengths of Ex=485 nm and Em=530 nm using a microplate reader, and the permeance was calculated (which was less than 1%).
(§13) 80 μL of the compound to be tested was taken, added to 320 μL of acetonitrile solution containing internal standard (30 ng/mL Tolbutamide), vortexed, and centrifuged for 10 min (4000 rpm, 4° C.), and the supernatant was taken for LC-MS/MS analysis.
(§14) Excel 2013 was used to calculate Papp values and Papp ratio of B side→A side to A side→B side, and the recovery rates of each Control Compound and the compound to be tested were calculated.
(§15) Apparent permeability coefficient (Papp) of compound was calculated according to the following formula:
(§16) C0 was the initial concentration (μM) of the drug to be tested at the donor, (dCr/dt)×Vr was the rate (μM/s) at which the drug to be tested appeared at the receiver, Vr was the solution volume (mL) at the receiver, and A was the surface area (cm^2) of polycarbonate membrane.
(§17) Evaluation criteria: Low permeability: Papp≤0.5 (×10^−6 cm/s) • Medium permeability: 0.5<Papp<2.5 (×10^−6 cm/s) • High permeability: Papp≥2.5 (×10^−6 cm/s)
(§18) Efflux ratio (ER) was calculated according to Papp:
(§19) [formula] • wherein, Papp(B→A) was the apparent permeability coefficient of the drug to be tested from the BL (baso-lateral) end to the AP (apical) end, and Papp (A→B) was the apparent permeability coefficient of the drug to be tested from the AP end to the BL end.
(§20) • Probably being an efflux transporter substrate (Probably): ERa≥2 and ERa/ERi>2 • Likely being an efflux transporter substrate (Likely): ERa≥2 • Unlikely or impossibly being an efflux transporter substrate (Poor or non): ERa<2 • wherein, ERi and ERa were the efflux ratios of the compound to be tested in the presence and absence of P-gp inhibitor, respectively.

Data set [3] can be described thus: Permeability test in MDCK cell model. To be noted: dog, pH 7.4. It counts as in vitro ADME. On the procedure:
as §5, §6, §7, §8, §9, §10, §11, §12, §13, §14, §15, §16, §17, §18, §19, §20

Another data set concerns NCI-H1975 cells. As to the kind of experiment: Inhibitory effect on NCI-H1975 cell proliferation. It counts as cell-based. As to conditions: Homo sapiens; NCI-H1975, 72 h incubation, Cell Counting-Lite 2.0. On the procedure: (1) Cell plating: First, tumor cells NCI-H1975 were cultured with corresponding culture medium, the cells were digested with trypsin and centrifuged, then the cells were resuspended and counted, and the cells were adjusted to an appropriate concentration for plating.
(§21) Co-incubation of the compounds of the present invention and tumor cells: After cell adherence, the culture medium in the cells was removed, and the diluted bioactive molecules (compounds of the present invention) were added into the wells of the above plates, and incubated for 72 h.
(§22) In vitro cell viability detection: After the incubation, 50 μL of Cell Counting-Lite™ 2.0 reagent (Vazyme) was added to each well, shaken and mixed well in the dark, and reacted for 10 minutes before testing. Microplate reader (manufacturer: BMG, Model: PHERA Star-FS) was used for reading. The Cell Counting-Lite™ without cells was used to obtain the background RLU, and the Cell Counting-Lite™ with cells was used obtain the solvent RLU. Cell inhibition rate=1−(sample RLU−background RLU)/(solvent RLU−background RLU)×100%. The half-inhibition concentration (IC50) of compound was calculated by fitting the curve according to the four-parameter model. RLU: relative light unit.

Another data set has as its system HCC827 cells. As to the kind of experiment: Inhibitory effect on HCC827 cell proliferation. It counts as cell-based. As to conditions: Homo sapiens; HCC827, 72 h incubation, Cell Counting-Lite 2.0. On the procedure:
(1) Cell plating: First, tumor cells HCC827 were cultured with corresponding culture medium, the cells were digested with trypsin and centrifuged, then the cells were resuspended and counted, and the cells were adjusted to an appropriate concentration for plating.
as §21, §22

The test system of another data set is HCC1954 cells. As to the kind of experiment: Inhibitory effect on HCC1954 cell proliferation. It counts as cell-based. As to conditions: Homo sapiens; HCC1954, 72 h incubation, Cell Counting-Lite 2.0. The method, then: (1) Cell plating: First, tumor cells HCC1954 were cultured with corresponding culture medium, the cells were digested with trypsin and centrifuged, then the cells were resuspended and counted, and the cells were adjusted to an appropriate concentration for plating.
as §21, §22

For orientation: Papp A→B means the apparent permeability from the apical to the basolateral side of a cell layer. The Papp B→A is how fast a substance crosses the layer from the basolateral side. Usually efflux ratio stands for the permeability from basolateral to apical divided by that in the opposite direction, in the common usage. As a reminder, the IC50 is the concentration that inhibits the measured activity by half.

For the compound `CC[C@@]1(O)C(=O)OCc2c1cc1n(c2=O)Cc2c-1nc1cc(F)c(Cl)c3c1c2[C@@H](NC(=O)C[C@H](C)O)CC3` [Compound 2-25, (S)—N-((1S,9S)-4-chloro-9-ethyl-5-fluoro-9-hydroxy-10,13-dioxo-2,3,9,10,13,15-hexahydro-1H,12H-benzo[d]pyrano[3′,4′:6,7]indolizino[1,2-b]quinolin-1-yl)-3-hydroxybutyamide], in data set [1], the “Remaining rate (%) Human” value is listed as 80.0%. In data set [2], the “Remaining rate (%) Monkey” value is 79.5%. For the same compound, in the data set with MDCK cells, the “Permeability class according to the Papp(A→B) results” value is “medium-permeability”. Further, in data set [3], the Papp A→B at 120 min, 2 μM was determined as 0.78 ×10⁻⁶ cm/s; the Papp B→A at 120 min, 2 μM was 3.56 ×10⁻⁶ cm/s; the efflux ratio at 120 min, 2 μM came to 4.57. The same compound had an IC50 in the data set with NCI-H1975 cells of 29.4 nM. It took 110 nM to reach half-maximal inhibition in the data set on HCC827 cells (IC50). For the same compound, the IC50 with HCC1954 cells came out at 171 nM.
